Columns and labels:
Test in all cases: relative viability (nuclei count vs DMSO), 5 days (fraction); higher = more cells survive
NCI-H2023 = tested on: NCI-H2023
Outline: (§1)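 Dosing by pin tool came one day after lung cancer cell lines were seeded in 1536-well plates, using either one drug or a fixed anchor-drug dose plus five library-drug doses (not always all listed) in √10 steps. After 5 days, nuclei were counted on 4× images. Relative viability is treated-well nuclei count divided by vehicle-well nuclei count, and values are medians of duplicate plates.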

NCI-H2170 = tested on: NCI-H2170
Outline: as §1

NCI-H2347 = tested on: NCI-H2347
Outline: as §1

NCI-H2405 = tested on: NCI-H2405
Outline: as §1

NCI-H3122 = tested on: NCI-H3122
Outline: as §1

NCI-H322M = tested on: NCI-H322M
Outline: as §1

NCI-H441 = tested on: NCI-H441
Outline: as §1

NCI-H520 = tested on: NCI-H520
Outline: as §1

NCI-H647 = tested on: NCI-H647
Outline: as §1

PC-14 = tested on: PC-14
Outline: as §1

UMC-11 = tested on: UMC-11
Outline: as §1

COc1cc2nccc(Oc3ccc(NC(=O)Nc4cc(C)on4)c(Cl)c3)c2cc1OC [Tivozanib] + CS(=O)(=O)N1CCN(Cc2cc3nc(-c4cccc5[nH]ncc45)nc(N4CCOCC4)c3s2)CC1 [Pictilisib] (partner 1 µM)
relative viability (NCI-H2023; first compound 0.05 µM): 0.249
relative viability (NCI-H2023; first compound 0.1581 µM): 0.178
relative viability (NCI-H2023; first compound 0.5 µM): 0.195
relative viability (NCI-H2170; first compound 0.005 µM): 0.312
relative viability (NCI-H2170; first compound 0.01581 µM): 0.344
relative viability (NCI-H2170; first compound 0.05 µM): 0.404
relative viability (NCI-H2170; first compound 0.5 µM): 0.335
relative viability (NCI-H2347; first compound 0.005 µM): 0.599
relative viability (NCI-H2347; first compound 0.01581 µM): 0.53
relative viability (NCI-H2347; first compound 0.05 µM): 0.846
relative viability (NCI-H2347; first compound 0.1581 µM): 0.344
relative viability (NCI-H2347; first compound 0.5 µM): 0.727
relative viability (NCI-H2405; first compound 0.005 µM): 0.34
relative viability (NCI-H2405; first compound 0.01581 µM): 0.398
relative viability (NCI-H2405; first compound 0.05 µM): 0.428
relative viability (NCI-H2405; first compound 0.1581 µM): 0.312
relative viability (NCI-H2405; first compound 0.5 µM): 0.342
relative viability (NCI-H3122; first compound 0.005 µM): 0.568
relative viability (NCI-H3122; first compound 0.01581 µM): 0.547
relative viability (NCI-H3122; first compound 0.05 µM): 0.598
relative viability (NCI-H3122; first compound 0.1581 µM): 0.644
relative viability (NCI-H3122; first compound 0.5 µM): 0.789
relative viability (NCI-H322M; first compound 0.005 µM): 0.484
relative viability (NCI-H322M; first compound 0.01581 µM): 0.518
relative viability (NCI-H322M; first compound 0.05 µM): 0.529
relative viability (NCI-H322M; first compound 0.1581 µM): 0.465
relative viability (NCI-H322M; first compound 0.5 µM): 0.568
relative viability (NCI-H441; first compound 0.005 µM): 0.571
relative viability (NCI-H441; first compound 0.01581 µM): 0.511
relative viability (NCI-H441; first compound 0.05 µM): 0.536
relative viability (NCI-H441; first compound 0.1581 µM): 0.484
relative viability (NCI-H441; first compound 0.5 µM): 0.31
relative viability (NCI-H520; first compound 0.005 µM): 0.263
relative viability (NCI-H520; first compound 0.01581 µM): 0.256
relative viability (NCI-H520; first compound 0.05 µM): 0.295
relative viability (NCI-H520; first compound 0.1581 µM): 0.242
relative viability (NCI-H520; first compound 0.5 µM): 0.302
relative viability (NCI-H647; first compound 0.005 µM): 0.419
relative viability (NCI-H647; first compound 0.01581 µM): 0.438
relative viability (NCI-H647; first compound 0.05 µM): 0.402
relative viability (NCI-H647; first compound 0.1581 µM): 0.296
relative viability (NCI-H647; first compound 0.5 µM): 0.227
relative viability (PC-14; first compound 0.005 µM): 0.631
relative viability (PC-14; first compound 0.01581 µM): 0.604
relative viability (PC-14; first compound 0.05 µM): 0.693
relative viability (PC-14; first compound 0.1581 µM): 0.51
relative viability (PC-14; first compound 0.5 µM): 0.635
relative viability (UMC-11; first compound 0.005 µM): 0.793
relative viability (UMC-11; first compound 0.01581 µM): 0.725
relative viability (UMC-11; first compound 0.05 µM): 0.712
relative viability (UMC-11; first compound 0.5 µM): 0.653
